According to US20250268894A1, “MACROCYCLE COMPOUNDS FOR THE TREATMENT OF CANCER” (Hoffmann-La Roche Inc., priority 2022, published 2025):

Assays:
[1] = Single dose pharmacokinetics (PK) study in female BALB/c mice; assay type: in vivo
Procedure: The purpose of this study was to determine the pharmacokinetics of selected compounds following single intravenous bolus or oral gavage administration in female BALB/c mice. Briefly, two groups of female BALB/c mice (available from Shanghai Lingchang Biotechnology Co., Ltd)(N=3/group) were treated with a single dose of compound intravenously at 3 mg/kg (IV) or orally at 30 mg/kg (PO). Blood samples were collected at 5 min (only for IV), […], 30 min, 1 h, 2 h, 4 h, 7 h and 24 h post-dose. Blood samples were placed on ice until centrifugation to obtain plasma samples. The concentration of compound in plasma samples was determined using LC-MS/MS method. The pharmacokinetic parameters were calculated by non-compartmental analysis.

[2] = test system: NCI-H358 cells (KRAS G12C); experiment: Cell viability assay (Cell Counting Kit-8), KRAS G12C; assay type: cell-based; conditions: Homo sapiens, NCI-H358, 72 hrs
How it was run: (§1)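 Cells seeded overnight at 5,000/well (NCI-H358) or 2,000/well (AGS, SW620), then exposed to compound for 72 hrs at 0.5% DMSO final. CCK-8 read as OD450 minus OD650 after 2 hrs; IC50 from 4-parameter sigmoidal fit.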

[3] = test system: AGS cells (KRAS G12D); experiment: Cell viability assay (Cell Counting Kit-8), KRAS G12D; assay type: cell-based; conditions: Homo sapiens, 72 hrs
How it was run: as §1

[4] = target: KRAS G12V-BRAF complex (Homo sapiens (Human), UniProt P01116+P62937, G12V); experiment: KRAS-BRAF with CYPA (500 nM) interaction assay (TR-FRET), G12V; assay type: biochemical
KRAS G12V-BRAF complex, sequence (P01116-2 other isoform, or with tags, fused parts or gaps G12V): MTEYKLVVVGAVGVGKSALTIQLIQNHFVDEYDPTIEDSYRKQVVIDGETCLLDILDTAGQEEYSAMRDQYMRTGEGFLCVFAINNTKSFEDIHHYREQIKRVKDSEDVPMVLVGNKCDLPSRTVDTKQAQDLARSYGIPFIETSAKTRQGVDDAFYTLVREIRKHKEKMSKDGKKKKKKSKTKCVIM
KRAS G12V-BRAF complex, sequence (P62937 whole entry): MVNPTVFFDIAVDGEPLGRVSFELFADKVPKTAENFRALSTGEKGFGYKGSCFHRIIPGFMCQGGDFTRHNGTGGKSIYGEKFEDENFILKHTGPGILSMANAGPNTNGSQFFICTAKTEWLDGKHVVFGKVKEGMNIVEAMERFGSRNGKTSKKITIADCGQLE
How it was run: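 TR-FRET read of compound- or compound-CYPA-driven disruption of BRAF binding by KRAS G12C, G12D or G12V, with CYPA at 500 nM. Compounds tested as 16-point 3-fold dilutions from 10 μM final, incubated 3 hours. Ex320/Em 665/615 nm ratio drop relative to DMSO wells marks disruption.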

[5] = test system: phosphorylation of ERK, KRAS G12C in NCI-H358 cells; experiment: pERK inhibition assay, KRAS G12C in NCI-H358 cells; assay type: cell-based, human; conditions: Homo sapiens, NCI-H358, 4 hours
How it was run: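 NCI-H358 (G12C), AGS (G12D) and SW620 (G12V) cells in RPMI-1640/10% FBS, plated overnight, then treated 4 h with compound (0.5% DMSO final). Fixed, methanol-permeabilized; phospho-ERK detected by in-cell ELISA (anti-pERK, HRP secondary, TMB, OD450). IC50 from 4-parameter sigmoidal fit.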

[6] = test system: Miapaca-2 KRAS G12C + H95N cells; experiment: Stable KRAS mutant cell line viability assay (CellTiter-Glo), G12C + H95N; assay type: cell-based; conditions: Homo sapiens, MIA PaCa-2, 72 h, Miapaca-2 mutant cells, 3 d
Text: (§2) The aim of the study was to determine the potency and efficacy of compounds for cell proliferation using CellTiter-Glo® (CTG) Luminescent Cell Viability Assay (Promega Corp., Madison, WI). We cloned […] KRAS^G12C variant sequences with secondary mutations (V8A, V9Y, S17E, T58I, A59T, S65W, R68S, D69P, M72I, D92R, H95N, Y96D, Q99F, Q99W, Y96H, and F156L) into the Miapaca-2. Totally 14 stable Miapaca-2 mutant cell lines were established through lentivirus infection. For the cell viability assay, cells were dosed with compounds in a 9-point dose-response using a 4 fold dilution series at a top dose of 10 μM. KRAS mutant cells were maintained in DMEM+10% FBS+2.5% HI Horse serum+1% PS+1 μg/mL Puromycin and seeded into 96-well plates at 800-1,500 cells per well 24 h before compound addition and then incubated with compound for 3 d before assaying viability (CellTiter-Glo, Promega). Assays were performed in biological duplicates. Nonlinear regression curves were fitted using Xfit. IC50 (absolute IC50) is the dose at which the estimated viability is 50% relative to untreated wells.

[7] = test system: Miapaca-2 KRAS G12C + F156L cells; experiment: Stable KRAS mutant cell line viability assay (CellTiter-Glo), G12C + F156L; assay type: cell-based; conditions: Homo sapiens, MIA PaCa-2, 72 h, Miapaca-2 mutant cells, 3 d
Text: as §2

[8] = mouse, 30 mg/kg, po, female BALB/c mice, plasma

With `CO[C@@H](C)c1ncc(N2CCN(CC(F)(F)F)CC2)cc1-c1c2c3cc(ccc3n1CC(F)(F)F)-c1csc(n1)C[C@H](NC(=O)[C@H](C(C)C)N(C)C(=O)N1CCOCC1)C(=O)N1CCC[C@H](N1)C(=O)OCC(C)(C)C2` (atropisomer, axis not shown; (M)) [Example 6] the F ([1]; 30 mg/kg, po, female BALB/c mice) was 29.7%, the “AUC0-last compared with compound A555” value ([1]; 30 mg/kg, po, mouse model) was 15 folds and the “Cmax compared with compound A555” value ([1]; 30 mg/kg, po, mouse model) was about 7 folds. For the same compound, the clearance ([1]; mouse, 3 mg/kg, iv, female BALB/c mice, plasma) was 3.7 mL/min/kg, the AUC(0-t) [1, 8] was 36800 ng·h/mL and the Cmax [1, 8] was 4890 ng/mL. It also gave an IC50 [2] of 5 nM, an IC50 [3] of 20 nM and an IC50 [4] of 61 nM. It also gave an IC50 [5] of 2 nM, an IC50 [6] of 5 nM and an IC50 [7] of 8 nM.
